This passage reports IC50 results from PMC3608752 (Annals of neurology, 2013).

pIC50: −log10 of the molar value.

As usually defined, the pIC50 is −log10 of the IC50, conventionally taken in molar units. Read a low pIC50 as a high IC50.

This test concerns the target T1, PH20 hyaluronidase (bovine testicular hyaluronidase, BTH/PH20) (Bos taurus, UniProt Q2YDK3).
T1 sequence (Q2YDK3 36-553): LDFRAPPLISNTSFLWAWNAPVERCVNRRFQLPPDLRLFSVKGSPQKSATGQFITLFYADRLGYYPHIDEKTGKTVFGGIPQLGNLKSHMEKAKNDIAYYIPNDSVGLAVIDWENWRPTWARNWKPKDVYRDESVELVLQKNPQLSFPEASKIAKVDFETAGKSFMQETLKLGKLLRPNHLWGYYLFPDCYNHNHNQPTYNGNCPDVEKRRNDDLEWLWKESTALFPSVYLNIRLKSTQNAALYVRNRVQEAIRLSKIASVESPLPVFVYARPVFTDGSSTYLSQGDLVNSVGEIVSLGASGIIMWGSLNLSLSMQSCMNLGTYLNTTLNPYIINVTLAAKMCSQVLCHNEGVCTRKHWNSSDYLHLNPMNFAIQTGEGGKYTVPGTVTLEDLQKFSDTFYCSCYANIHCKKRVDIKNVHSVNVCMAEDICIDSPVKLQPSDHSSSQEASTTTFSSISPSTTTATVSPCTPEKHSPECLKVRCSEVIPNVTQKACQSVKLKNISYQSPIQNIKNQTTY
Type of test: biochemical.

With `CCCCCCCCCCCCCCCC(=O)OC[C@H](O)[C@H]1OC(=O)C(O)=C1O` [VCPAL, 6-O-Palmitoyl-L-ascorbic acid], the negative-log IC50 (pIC50) is ~4.48.
